Molecular target: human F508del-CFTR (Homo sapiens, UniProt P13569, DEL508-508)
Test: F508del-CFTR cell surface expression (corrector activity), DiscoveRx ß-galactosidase complementation chemiluminescence assay in recombinant U2OS cell line;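 further: U2OS cells co-expressing ProLink-tagged F508del-CFTR and a membrane-anchored enzyme acceptor, where more surface CFTR restores β-galactosidase activity measured by chemiluminescence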
Details: for EC50: EC50, F508del-CFTR cell surface expression, U2OS cells, 16h compound incubation, geomean values; for Emax: U2OS, in relation to Emax of corrector lumacaftor (=100%), arithmetic mean values

Sequence of human F508del-CFTR (P13569 with tags, fused parts or gaps DEL508-508): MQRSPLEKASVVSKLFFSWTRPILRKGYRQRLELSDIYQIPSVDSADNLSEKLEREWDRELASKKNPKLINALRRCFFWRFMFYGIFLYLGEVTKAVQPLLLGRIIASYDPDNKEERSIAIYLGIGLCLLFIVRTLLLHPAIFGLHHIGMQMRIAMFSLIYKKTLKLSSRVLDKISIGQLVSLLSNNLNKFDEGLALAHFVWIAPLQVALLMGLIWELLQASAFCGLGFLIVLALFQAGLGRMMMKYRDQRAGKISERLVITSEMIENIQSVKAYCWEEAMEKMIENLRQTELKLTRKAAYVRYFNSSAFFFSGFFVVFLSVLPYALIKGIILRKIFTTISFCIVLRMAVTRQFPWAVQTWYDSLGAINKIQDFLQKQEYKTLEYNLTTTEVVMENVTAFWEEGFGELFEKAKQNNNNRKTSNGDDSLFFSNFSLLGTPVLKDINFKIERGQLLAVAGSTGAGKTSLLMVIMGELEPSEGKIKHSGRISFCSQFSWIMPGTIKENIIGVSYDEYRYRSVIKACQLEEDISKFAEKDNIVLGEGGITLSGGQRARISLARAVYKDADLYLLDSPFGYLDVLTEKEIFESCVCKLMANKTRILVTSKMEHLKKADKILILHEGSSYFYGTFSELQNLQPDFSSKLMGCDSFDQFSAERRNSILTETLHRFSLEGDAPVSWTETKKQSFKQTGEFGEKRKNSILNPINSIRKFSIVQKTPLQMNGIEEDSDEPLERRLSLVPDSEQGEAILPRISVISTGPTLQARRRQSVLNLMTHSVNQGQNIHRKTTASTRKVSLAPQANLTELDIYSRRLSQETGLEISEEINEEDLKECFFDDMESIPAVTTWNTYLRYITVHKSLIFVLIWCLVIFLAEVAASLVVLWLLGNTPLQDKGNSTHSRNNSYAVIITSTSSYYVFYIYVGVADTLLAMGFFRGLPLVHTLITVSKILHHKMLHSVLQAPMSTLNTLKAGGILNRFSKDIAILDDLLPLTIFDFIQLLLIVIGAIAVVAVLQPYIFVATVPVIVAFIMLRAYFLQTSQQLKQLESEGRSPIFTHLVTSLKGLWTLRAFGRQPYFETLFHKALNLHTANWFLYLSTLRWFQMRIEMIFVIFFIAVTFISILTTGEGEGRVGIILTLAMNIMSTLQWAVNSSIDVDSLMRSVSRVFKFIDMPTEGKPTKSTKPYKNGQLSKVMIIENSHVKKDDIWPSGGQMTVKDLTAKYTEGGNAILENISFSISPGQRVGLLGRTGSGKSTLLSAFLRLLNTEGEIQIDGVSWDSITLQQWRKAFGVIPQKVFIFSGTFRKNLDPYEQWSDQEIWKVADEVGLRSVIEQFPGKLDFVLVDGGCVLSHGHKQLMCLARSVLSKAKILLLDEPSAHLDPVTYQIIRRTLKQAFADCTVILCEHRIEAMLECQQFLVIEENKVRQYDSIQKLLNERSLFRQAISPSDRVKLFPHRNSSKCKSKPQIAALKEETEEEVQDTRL

Compound	EC50	Emax
CCOc1cccc(CCNC(=O)[C@@H]2CC(=O)N(C)[C@@H](CC(C)C)C(=O)N3CCN(C4CC4)C[C@H]3C(=O)N[C@H](Cc3ccccc3)COc3cnc4ccccc4c3C(=O)N2)c1 [Example 401, (9S,13S,19aS,22R)-22-benzyl-18-cyclopropyl-N-(3-ethoxyphenethyl)-13-isobutyl-12-methyl-7,11,14,20-tetraoxo-7,8,9,10,11,12,13,14,17,18,19,19a,20,21,22,23-hexadecahydro-16H-pyrazino[2′,1′:6,7][1]oxa[4,7,10,14]tetraazacycloheptadecino[17,16-c]quinoline-9-carboxamide]	559 nM	189%
Cc1cc(CCNC(=O)[C@@H]2CC(=O)N(C)[C@@H](CC(C)C)C(=O)N3CCN(C4CC4)C[C@@H]3C(=O)N[C@H](Cc3ccccc3)COc3cnc4ccccc4c3C(=O)N2)on1 [Example 402, (9S,13S,19aR,22R)-22-benzyl-18-cyclopropyl-13-isobutyl-12-methyl-N-(2-(3-methylisoxazol-5-yl)ethyl)-7,11,14,20-tetraoxo-7,8,9,10,11,12,13,14,17,18,19,19a,20,21,22,23-hexadecahydro-16H-pyrazino[2′,11:6,7][1]oxa[4,7,10,14]tetraazacycloheptadecino[17,16-c]quinoline-9-carboxamide]	305 nM	314%
Cc1cc(CCNC(=O)[C@@H]2CC(=O)N(C)[C@@H](CC(C)C)C(=O)N3CCN(C4CC4)C[C@H]3C(=O)N[C@H](Cc3ccccc3)COc3cnc4ccccc4c3C(=O)N2)on1 [Example 403, (9S,13S,19aS,22R)-22-benzyl-18-cyclopropyl-13-isobutyl-12-methyl-N-(2-(3-methylisoxazol-5-yl)ethyl)-7,11,14,20-tetraoxo-7,8,9,10,11,12,13,14,17,18,19,19a,20,21,22,23-hexadecahydro-16H-pyrazino[2′,11:6,7][1]oxa[4,7,10,14]tetraazacycloheptadecino[17,16-c]quinoline-9-carboxamide]	550 nM	179%
CC(C)C[C@H]1C(=O)N2CCN(C3CC3)C[C@@H]2C(=O)N[C@H](Cc2ccccc2)COc2cnc3ccccc3c2C(=O)N[C@H](C(=O)NCCc2nc3c(s2)CCC3)CC(=O)N1C [Example 404, (9S,13S,19aR,22R)-22-benzyl-18-cyclopropyl-N-(2-(5,6-dihydro-4H-cyclopenta[d]thiazol-2-yl)ethyl)-13-isobutyl-12-methyl-7,11,14,20-tetraoxo-7,8,9,10,11,12,13,14,17,18,19,19a,20,21,22,23-hexadecahydro-16H-pyrazino[2′,11:6,7][1]oxa[4,7,10,14]tetraazacycloheptadecino[17,16-c]quinoline-9-carboxamide]	157 nM	254%
CC(C)C[C@H]1C(=O)N2CCN(C3CC3)C[C@H]2C(=O)N[C@H](Cc2ccccc2)COc2cnc3ccccc3c2C(=O)N[C@H](C(=O)NCCc2nc3c(s2)CCC3)CC(=O)N1C [Example 405, (9S,13S,19aS,22R)-22-benzyl-18-cyclopropyl-N-(2-(5,6-dihydro-4H-cyclopenta[d]thiazol-2-yl)ethyl)-13-isobutyl-12-methyl-7,11,14,20-tetraoxo-7,8,9,10,11,12,13,14,17,18,19,19a,20,21,22,23-hexadecahydro-16H-pyrazino[2′,1′:6,7][1]oxa[4,7,10,14]tetraazacycloheptadecino[17,16-c]quinoline-9-carboxamide]	343 nM	171%
COc1cccc(CCNC(=O)[C@@H]2CC(=O)N(C)[C@@H](CC(C)C)C(=O)N3CCCC[C@@H]3C(=O)N[C@H](Cc3ccccc3)COc3cc4oc(C)nc4cc3C(=O)N2)c1 [Example 406, (7S,11S,21R,23aR)-21-benzyl-7-isobutyl-N-(3-methoxyphenethyl)-8,16-dimethyl-6,9,13,23-tetraoxo-1,3,4,6,7,8,9,10,11,12,13,20,21,22,23,23a-hexadecahydro-2H-oxazolo[5′,4′:4,5]benzo[1,2-p]pyrido[2,1-f][1]oxa[4,7,10,14]tetraazacycloheptadecine-11-carboxamide]	409 nM	173%
COc1cccc(CCNC(=O)[C@@H]2CC(=O)N(C)[C@@H](CC(C)C)C(=O)N3CCOC[C@@H]3C(=O)N[C@H](Cc3ccccc3)COc3cc4oc(C)nc4cc3C(=O)N2)c1 [Example 407]	684 nM	123%
CC(C)C[C@H]1C(=O)N(C)CC(=O)N[C@H](Cc2ccccc2)COc2ccc3c(c2C(=O)N[C@H](C(=O)NCCc2ccc4c(c2)OCO4)CC(=O)N1C)OC(F)(F)O3 [Example 408, (8R,14S,18S)-N-(2-(benzo[d][1,3]dioxol-5-yl)ethyl)-8-benzyl-2,2-difluoro-14-isobutyl-12,15-dimethyl-10,13,16,20-tetraoxo-7,8,9,10,11,12,13,14,15,16,17,18,19,20-tetradecahydro-[1,3]dioxolo[4′,5′:5,6]benzo[1,2-p][1]oxa[4,7,10,14]tetraazacycloheptadecine-18-carboxamide]	241 nM	134%
COc1cccc(CCNC(=O)[C@@H]2CC(=O)N(C)[C@@H](CC(C)C)C(=O)N(C)CC(=O)N[C@H](Cc3ccccc3)COc3ccc4c(c3C(=O)N2)OC(F)(F)O4)c1 [Example 409, (8R,14S,18S)-8-benzyl-2,2-difluoro-14-isobutyl-N-(3-methoxyphenethyl)-12,15-dimethyl-10,13,16,20-tetraoxo-7,8,9,10,11,12,13,14,15,16,17,18,19,20-tetradecahydro-[1,3]dioxolo[4′,5′:5,6]benzo[1,2-p][1]oxa[4,7,10,14]tetraazacycloheptadecine-18-carboxamide]	214 nM	144%
Cc1cc(CCNC(=O)[C@@H]2CC(=O)N(C)[C@@H](CC(C)C)C(=O)N(CCC3CCCCC3)CC(=O)N[C@H](Cc3ccccc3)COc3ccc4nc(C)oc4c3C(=O)N2)on1 [Example 410, (8R,14S,18S)-8-benzyl-12-(2-cyclohexylethyl)-14-isobutyl-2,15-dimethyl-N-(2-(3-methylisoxazol-5-yl)ethyl)-10,13,16,20-tetraoxo-7,8,9,10,11,12,13,14,15,16,17,18,19,20-tetradecahydrooxazolo[4′,5′:5,6]benzo[1,2-p][1]oxa[4,7,10,14]tetraazacycloheptadecine-18-carboxamide]	129 nM	269%
Cc1cc(CCNC(=O)[C@@H]2CC(=O)N(C)[C@@H](CC(C)C)C(=O)N(CCC3CCCCC3)CC(=O)N[C@H](Cc3ccccc3)COc3cnc4c(F)cccc4c3C(=O)N2)on1 [Example 411, (3S,7S,13R)-13-benzyl-9-(2-cyclohexylethyl)-18-fluoro-7-isobutyl-6-methyl-N-(2-(3-methylisoxazol-5-yl)ethyl)-1,5,8,11-tetraoxo-1,2,3,4,5,6,7,8,9,10,11,12,13,14-tetradecahydro-[1]oxa[4,7,10,14]tetraazacycloheptadecino[17,16-c]quinoline-3-carboxamide]	138 nM	250%
COc1cccc(CCNC(=O)[C@@H]2CC(=O)N(C)[C@@H](CC(C)C)C(=O)N3CCOC[C@@H]3C(=O)N[C@H](Cc3ccccc3)COc3cnc4ccccc4c3C(=O)N2)c1 [Example 412, (9S,13S,19aR,22R)-22-benzyl-13-isobutyl-N-(3-methoxyphenethyl)-12-methyl-7,11,14,20-tetraoxo-7,8,9,10,11,12,13,14,16,17,19,19a,20,21,22,23-hexadecahydro-[1,4]oxazino[3′,4′:6,7][1]oxa[4,7,10,14]tetraazacycloheptadecino[17,16-c]quinoline-9-carboxamide]	377 nM	291%
COc1cccc(CCNC(=O)[C@@H]2CC(=O)N(C)[C@@H](CC(C)C)C(=O)N3CCOC[C@H]3C(=O)N[C@H](Cc3ccccc3)COc3cnc4ccccc4c3C(=O)N2)c1 [Example 413, (9S,13S,19aS,22R)-22-benzyl-13-isobutyl-N-(3-methoxyphenethyl)-12-methyl-7,11,14,20-tetraoxo-7,8,9,10,11,12,13,14,16,17,19,19a,20,21,22,23-hexadecahydro-[1,4]oxazino[3′,4′:6,7][1]oxa[4,7,10,14]tetraazacycloheptadecino[17,16-c]quinoline-9-carboxamide]	557 nM	129%
COCCN1CCN2C(=O)[C@H](CC(C)C)N(C)C(=O)C[C@@H](C(=O)NCCc3cccc(OC(F)F)c3)NC(=O)c3c(cnc4ccccc34)OC[C@@H](Cc3ccccc3)NC(=O)[C@H]2C1 [Example 414, (9S,13S,19aR,22R)-22-benzyl-N-(3-(difluoromethoxy)phenethyl)-13-isobutyl-18-(2-methoxyethyl)-12-methyl-7,11,14,20-tetraoxo-7,8,9,10,11,12,13,14,17,18,19,19a,20,21,22,23-hexadecahydro-16H-pyrazino[2′,1′:6,7][1]oxa[4,7,10,14]tetraazacycloheptadecino[17,16-c]quinoline-9-carboxamide]	372 nM	251%
COCCN1CCN2C(=O)[C@H](CC(C)C)N(C)C(=O)C[C@@H](C(=O)NCCc3nc4c(s3)CCC4)NC(=O)c3c(cnc4ccccc34)OC[C@@H](Cc3ccccc3)NC(=O)[C@H]2C1 [Example 415, (9S,13S,19aR,22R)-22-benzyl-N-(2-(5,6-dihydro-4H-cyclopenta[d]thiazol-2-yl)ethyl)-13-isobutyl-18-(2-methoxyethyl)-12-methyl-7,11,14,20-tetraoxo-7,8,9,10,11,12,13,14,17,18,19,19a,20,21,22,23-hexadecahydro-16H-pyrazino[2′,1′:6,7][1]oxa[4,7,10,14]tetraazacycloheptadecino[17,16-c]quinoline-9-carboxamide]	840 nM	274%
COc1cccc(CCNC(=O)[C@@H]2CC(=O)N(C)[C@@H](CC(C)C)C(=O)N3CCN(CCO)C[C@@H]3C(=O)N[C@H](Cc3ccccc3)COc3ccc4ccccc4c3C(=O)N2)c1 [Example 416, (4aR,7R,18S,22S)-7-benzyl-3-(2-hydroxyethyl)-22-isobutyl-N-(3-methoxyphenethyl)-21-methyl-5,16,20,23-tetraoxo-2,3,4,4a,5,6,7,8,16,17,18,19,20,21,22,23-hexadecahydro-1H-naphtho[1,2-p]pyrazino[2,1-f][1]oxa[4,7,10,14]tetraazacycloheptadecine-18-carboxamide]	526 nM	345%

From US20240208992A1, “MACROCYCLES AS CFTR MODULATORS” (Idorsia Pharmaceuticals Ltd, priority 2021, published 2024)
